Source: patent US20200208128A1, “METHODS OF TREATING LIVER DISEASES” (CAMP4 THERAPEUTICS CORPORATION, priority 2017, published 2020)
Entries after “also recorded” stand apart in the source; their conditions may differ.

Columns and labels:
PNPLA3 [1] = assay: qRT-PCR validation of PNPLA3 expression in primary human hepatocytes; format: cell-based
Description: Cryopreserved hepatocytes were cultured in plating media for 16 hours, transferred to maintenance media for 4 hours. Cultured on serum-free media for 2 hours, then a compound was added. The hepatocytes were maintained on the serum-free media for 16 hours prior to gene expression analysis. Primary Human Hepatocytes were stored in the vapor phase of a liquid nitrogen freezer (about −130° C.).
(§5) Human hepatocytes cultured as described above were plated in 24-well format, adding 375,000 cells per well in a volume of 500 ul plating medium. Four hours before treatment, cells were washed with PBS and the medium was changed to either: fresh maintenance medium (complete) or modified maintenance medium.
Compound stocks were prepared at 1000× final concentration and added in a 2-step dilution to the medium to reduce risk of a compound precipitating out of solution when added to the cells, and to ensure reasonable pipetting volumes. One at a time, each compound was first diluted 10-fold in warm (about 37° C.) modified maintenance medium (initial dilution=ID), mixed by vortexing, and the ID was diluted 100-fold into the cell culture (e.g. 5.1 μl into 1 well of a 24-well plate containing 0.5 mL medium). The plate was mixed by carefully swirling and after all wells were treated and returned to the incubator overnight. If desired, separate plates/wells were treated with vehicle-only controls and/or positive controls. If using multi-well plates, controls were included on each plate.
Samples were amplified using the following Taqman probes from ThermoFisher for each target: Hs01552217_m1 (human PNPLA3).
Analysis of the fold changes in expression as measured by qRT-PCR were performed using the technique below. The control was DMSO, and the treatment was the selected compound (CPD). The internal control was GAPDH or B-Actin (or otherwise indicated), and the gene of interest is the target. First, the averages of the 4 conditions were calculated for normalization: DMSO:GAPDH, DMSO:Target, CPD: GAPDH, and CPD:Target. Next, the ΔCT of both control and treatment were calculated to normalize to internal control (GAPDH) using (DMSO:Target)−(DMSO:GAPDH)=ΔCT control and (CPD:Target)−(CPD: GAPDH)=ΔCT experimental. Then, the ΔΔCT was calculated by ΔCT experimental−ΔCT control. The Expression Fold Change (or Relative Quantification, abbreviated as RQ) was calculated by 2−(ΔΔCT) (2-fold expression change was shown by RNA-Seq results provided herein).
Candidate compounds were subjected to validation with qRT-PCR in human hepatocytes. qRT-PCR was performed on samples of primary human hepatocytes from a second donor treated with the candidate compounds. Compounds were tested at concentrations ranging from 0.01 μM to 50 μM, with the majority tested at 10 μM.

PNPLA3 [2] = assay: qRT-PCR of PNPLA3 mRNA in hepatic stellate cells; format: cell-based, human; conditions: for Effect on PNPLA3 mRNA levels in stellate cells: serial dilutions; for Relative PNPLA3 mRNA levels RQ: fold change vs DMSO
Description: (§1) Human Primary Stellate cells (HSC) (ScienceCell Cat #5300) were originally isolated from the liver of a donor. Cells were plated in Stellate Cell Medium (SteCM) (ScienCell Cat #5301) on black clear bottom plates (GREINER BIO-ONE:82050-730) coated with 2 μg/cm^2 PolyLLysine (PLL) (ScienceCell Cat #0413). Cells were plated at a density of 17000 cells/well in a 96-well plate and allowed to adhere overnight. The following day cell culture media was replenished with the indicated concentration(s) of compound for 18 hours. […] Medium was removed after 18 hours and cells were processed for further analysis, e.g. qRT-PCR.
(§2) In some examples, RQ Min and RQ Max values are also reported. RQ Min and RQ Max are the minimum and maximum relative levels of gene expression in the test samples, respectively. They were calculated using the confidence level set in the analysis settings and the confidence level was set to one standard deviation (SD). These values were calculated using standard deviation as follows: […].
Candidate compounds were tested in stellate cells for their ability to modulate PNPLA3 and COL1A1. Stellate cells were treated with serial dilutions of the compounds, ranging from 0.1 μM to 100 μM. Changes in PNPLA3 (or COL1A1) mRNA levels in stellate cells were analyzed with qRT-PCR. Once compounds capable of downregulating PNPLA3 and/or COL1A1 were identified, additional compounds that are known to act in the same pathways were also tested. Transforming growth factor beta (TGF-beta) is known to induce fibrotic genes including COL1A1 in vitro, and was thus chosen as a positive control (i.e., positively regulate COL1A1 expression).

COL1A1 [3] = assay: qRT-PCR of COL1A1 mRNA in hepatic stellate cells; format: cell-based, human; conditions: for Relative COLIA1 mRNA levels RQ: four technical replicates; for Effect on COL1A1 expression in stellate cells: serial dilutions; for Relative COL1A1 mRNA levels RQ: fold change vs DMSO
Description: as §1, §2
Candidate compounds were tested in stellate cells for their ability to modulate PNPLA3 and COL1A1. […] Changes in PNPLA3 (or COL1A1) mRNA levels in stellate cells were analyzed with qRT-PCR. Once compounds capable of downregulating PNPLA3 and/or COL1A1 were identified, additional compounds that are known to act in the same pathways were also tested. Transforming growth factor beta (TGF-beta) is known to induce fibrotic genes including COL1A1 in vitro, and was thus chosen as a positive control (i.e., positively regulate COL1A1 expression).

[4] = target: Platelet-derived growth factor receptor alpha (PDGFRα) (Homo sapiens, UniProt P16234); conditions: cited from earlier work
Platelet-derived growth factor receptor alpha (PDGFRα), sequence (P16234 593-954 limits assumed): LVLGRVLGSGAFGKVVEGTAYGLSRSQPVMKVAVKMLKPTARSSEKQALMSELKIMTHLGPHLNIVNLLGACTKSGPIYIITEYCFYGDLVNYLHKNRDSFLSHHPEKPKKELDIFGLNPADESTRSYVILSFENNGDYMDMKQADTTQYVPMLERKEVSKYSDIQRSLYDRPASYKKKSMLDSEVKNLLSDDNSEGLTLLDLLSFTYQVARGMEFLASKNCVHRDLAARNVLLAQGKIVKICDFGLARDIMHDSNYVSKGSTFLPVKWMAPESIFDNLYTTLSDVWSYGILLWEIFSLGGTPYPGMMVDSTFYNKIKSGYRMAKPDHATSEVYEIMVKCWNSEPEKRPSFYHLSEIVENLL

FLT3 = target: T1, FLT3 (Homo sapiens, UniProt P36888); conditions: cited from earlier work
T1 construct: IC50; other: FLT3
T1 sequence (P36888 1-993 D835Y): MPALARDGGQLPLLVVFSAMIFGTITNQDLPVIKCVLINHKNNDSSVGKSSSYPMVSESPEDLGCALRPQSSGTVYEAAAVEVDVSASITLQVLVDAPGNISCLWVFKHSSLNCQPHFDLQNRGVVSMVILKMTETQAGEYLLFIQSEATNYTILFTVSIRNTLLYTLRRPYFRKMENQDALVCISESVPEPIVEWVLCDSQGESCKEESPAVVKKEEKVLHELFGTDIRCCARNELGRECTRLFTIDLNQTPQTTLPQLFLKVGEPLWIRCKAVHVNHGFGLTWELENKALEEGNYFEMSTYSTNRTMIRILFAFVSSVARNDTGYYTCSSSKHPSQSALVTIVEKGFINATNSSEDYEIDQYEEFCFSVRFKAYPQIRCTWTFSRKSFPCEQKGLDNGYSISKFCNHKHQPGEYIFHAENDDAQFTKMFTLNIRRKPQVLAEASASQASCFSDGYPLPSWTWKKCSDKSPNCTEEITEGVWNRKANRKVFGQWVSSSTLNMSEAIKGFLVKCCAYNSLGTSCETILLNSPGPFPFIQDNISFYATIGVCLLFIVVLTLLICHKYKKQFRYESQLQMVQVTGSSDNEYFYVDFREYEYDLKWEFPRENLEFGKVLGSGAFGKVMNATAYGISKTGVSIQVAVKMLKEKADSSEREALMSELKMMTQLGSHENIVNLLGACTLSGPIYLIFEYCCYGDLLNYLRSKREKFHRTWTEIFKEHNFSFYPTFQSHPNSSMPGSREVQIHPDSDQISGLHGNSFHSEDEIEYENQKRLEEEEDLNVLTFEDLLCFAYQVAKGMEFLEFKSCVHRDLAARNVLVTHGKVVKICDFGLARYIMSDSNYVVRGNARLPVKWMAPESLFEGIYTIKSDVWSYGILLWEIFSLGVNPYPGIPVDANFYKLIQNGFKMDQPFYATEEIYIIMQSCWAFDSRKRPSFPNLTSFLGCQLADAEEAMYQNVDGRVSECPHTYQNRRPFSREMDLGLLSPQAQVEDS

[5] = target: stem cell growth factor receptor (SCFR or c-Kit) (Homo sapiens, UniProt P10721); conditions: cited from earlier work
stem cell growth factor receptor (SCFR or c-Kit), sequence (P10721 whole entry D816H, form open): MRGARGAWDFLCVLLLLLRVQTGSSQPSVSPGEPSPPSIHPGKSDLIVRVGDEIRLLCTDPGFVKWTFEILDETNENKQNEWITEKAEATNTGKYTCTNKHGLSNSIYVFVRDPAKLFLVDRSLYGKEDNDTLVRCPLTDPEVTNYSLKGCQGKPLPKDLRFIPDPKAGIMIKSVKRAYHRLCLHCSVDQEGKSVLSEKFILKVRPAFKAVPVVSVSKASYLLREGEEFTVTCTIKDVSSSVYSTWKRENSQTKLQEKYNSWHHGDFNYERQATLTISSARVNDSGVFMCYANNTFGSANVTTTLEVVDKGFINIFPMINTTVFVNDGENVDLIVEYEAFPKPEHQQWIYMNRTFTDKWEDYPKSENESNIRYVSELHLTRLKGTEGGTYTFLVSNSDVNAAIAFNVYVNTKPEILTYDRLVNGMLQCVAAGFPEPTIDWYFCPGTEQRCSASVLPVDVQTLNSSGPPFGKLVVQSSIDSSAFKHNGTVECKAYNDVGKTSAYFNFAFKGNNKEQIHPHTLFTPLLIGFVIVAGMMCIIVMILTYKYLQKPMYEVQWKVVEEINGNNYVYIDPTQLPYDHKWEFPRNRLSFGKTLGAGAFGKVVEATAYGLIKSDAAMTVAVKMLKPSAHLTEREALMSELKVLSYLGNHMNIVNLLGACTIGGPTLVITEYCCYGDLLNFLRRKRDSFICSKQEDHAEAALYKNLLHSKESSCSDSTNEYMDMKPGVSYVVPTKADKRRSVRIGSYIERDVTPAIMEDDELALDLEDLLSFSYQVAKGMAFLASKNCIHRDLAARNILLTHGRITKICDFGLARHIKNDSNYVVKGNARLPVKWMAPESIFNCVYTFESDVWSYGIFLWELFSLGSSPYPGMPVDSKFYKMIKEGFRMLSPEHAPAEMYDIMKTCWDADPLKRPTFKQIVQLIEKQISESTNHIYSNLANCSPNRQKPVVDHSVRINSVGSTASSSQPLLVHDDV

PNPLA3 [6] = assay: RNA-seq of compound-treated primary human hepatocytes: PNPLA3 expression; format: cell-based
Description: (§6) Cryopreserved hepatocytes were cultured in plating media for 16 hours, transferred to maintenance media for 4 hours. Cultured on serum-free media for 2 hours, then a compound was added. The hepatocytes were maintained on the serum-free media for 16 hours prior to gene expression analysis.
as §5
Compound stocks were prepared at 1000× final concentration and added in a 2-step dilution to the medium to reduce risk of a compound precipitating out of solution when added to the cells, and to ensure reasonable pipetting volumes. One at a time, each compound was first diluted 10-fold in warm (about 37° C.) modified maintenance medium (initial dilution=ID), mixed by vortexing, and the ID was diluted 100-fold into the cell culture (e.g. 5.1 μl into 1 well of a 24-well plate containing 0.5 mL medium). The plate was mixed by carefully swirling and after all wells were treated and returned to the incubator overnight. If desired, separate plates/wells were treated with vehicle-only controls and/or positive controls. If using multi-well plates, controls were included on each plate. After about 18 hours, cells were harvested for further analysis, e.g., ChIP-seq, RNA-seq, ATAC-seq, etc.
The expression level of each gene was quantified with normalized FPKM (fragments per kilobase of exon per million mapped fragments). The differentially expressed genes were called using Cuffdiff v2.2.1 with q value <0.01 and log 2fold change >=1 or <=−1.
RNA-seq was performed to determine the effects of the compounds on PNPLA3 expression in hepatocytes. Fold change was calculated by dividing the level of expression in the cell system that had been perturbed by the level of expression in an unperturbed system. Changes in expression having a p-value ≤0.05 were considered significant.

PNPLA3 [7] = assay: In vivo compound testing in mice: PNPLA3 expression in liver (qRT-PCR); design: species or system mouse; conditions: wild-type mice, 50 mg/kg once daily oral gavage, four days
Description: (§3) A group of 6 mice (C57BL/6J strain), 3 male and 3 female, were administered with a candidate compound once daily via oral gavage for four consecutive days. Mice were sacrificed 4 hours post-last dose on the fourth day. Organs including liver, spleen, kidney, adipose, plasma were collected. Mouse liver tissues were pulverized in liquid nitrogen and aliquoted into small microtubes. TRIzol (Invitrogen Cat #15596026) was added to the tubes to facilitate cell lysis from tissue samples. The TRIzol solution containing the disrupted tissue was then centrifuged and the supernatant phase was collected. Total RNA was extracted from the supernatant using Qiagen RNA Extraction Kit (Qiagen Cat #74182) and the target mRNA levels were analyzed using qRT-PCR.
(§4) Candidate compounds were administered at an appropriate dose once daily to a group of wild-type mice consisting of 3 male and 3 female mice. Mice were sacrificed on the fourth day and liver tissue was collected and analyzed for PNPLA3 (or COL1A1) expression by qRT-PCR. […] When COL1A1 was analyzed, a stellate cell specific gene GFAP was used as a house-keeping control.

[8] = system: PNPLA3 (I148M mutation), HepG2 cells; assay: qRT-PCR of mutant PNPLA3 expression in HepG2 cells; format: cell-based
Description: HepG2 cells were plated in 24 well format at 100,000 cells per well in 500 μl DMEM. […] The following morning, the cells were harvested for RNA extraction.
Candidate compounds were evaluated in a PNPLA3 mutant cell line HepG2 to test their effects on mutant PNPLA3 expression. The HepG2 cells have the I148M mutation in PNPLA3. Changes in PNPLA3 expression in HepG2 cells were analyzed with qRT-PCR. PNPLA3 mRNA levels were normalized to the geometric mean of two internal controls, GUSB and B2M.

JNK = conditions: cited from earlier work
[9] = In vivo compound testing in mice: body weight, organ weight, other liver genes; design: species or system mouse; conditions: 50 mg/kg once daily, four days
Description: as §3, §4

PNPLA3 [10] = assay: qRT-PCR of PNPLA3 expression in mouse hepatocytes; format: cell-based
Description: Analysis of the fold changes in expression as measured by qRT-PCR were performed using the technique below. The control was DMSO, and the treatment was the selected compound (CPD). The internal control was GAPDH or B-Actin (or otherwise indicated), and the gene of interest is the target. First, the averages of the 4 conditions were calculated for normalization: DMSO:GAPDH, DMSO:Target, CPD: GAPDH, and CPD:Target. Next, the ΔCT of both control and treatment were calculated to normalize to internal control (GAPDH) using (DMSO:Target)−(DMSO:GAPDH)=ΔCT control and (CPD:Target)−(CPD: GAPDH)=ΔCT experimental. Then, the ΔΔCT was calculated by ΔCT experimental−ΔCT control.
Compounds were tested at concentrations ranging from 0.01 μM to 50 μM. […] PNPLA3 levels were normalized to the level of a house keeping gene ACTB.

COL1A1 [11] = assay: In vivo compound testing in mice: COL1A1 expression in liver (qRT-PCR); design: species or system mouse; conditions: wild-type mice, 50 mg/kg once daily oral gavage, four days, GFAP as house-keeping control
Description: as §3, §4

PNPLA5 = assay: RNA-seq of compound-treated primary human hepatocytes: PNPLA5 expression; format: cell-based
Description: as §6, §5
Compound stocks were prepared at 1000× final concentration and added in a 2-step dilution to the medium to reduce risk of a compound precipitating out of solution when added to the cells, and to ensure reasonable pipetting volumes. One at a time, each compound was first diluted 10-fold in warm (about 37° C.) modified maintenance medium (initial dilution=ID), mixed by vortexing, and the ID was diluted 100-fold into the cell culture (e.g. 5.1 μl into 1 well of a 24-well plate containing 0.5 mL medium). […]
The expression level of each gene was quantified with normalized FPKM (fragments per kilobase of exon per million mapped fragments). […]
Fold change was calculated by dividing the level of expression in the cell system that had been perturbed by the level of expression in an unperturbed system. […]

Molecule: Cc1cc(Nc2nc(N[C@@H](C)c3ncc(F)cn3)ncc2Cl)[nH]n1 [AZD1480]
- Effect on PNPLA3 expression in human hepatocytes (PNPLA3 [1]): efficient downregulation

Molecule: CN1CCN(S(=O)(=O)c2ccc(-c3cnc(N)c(C(=O)Nc4cccnc4)n3)cc2)CC1 [AZD2858]
- Effect on PNPLA3 mRNA levels in stellate cells (PNPLA3 [2]): modestly decreased both PNPLA3 and COL1A1 in a dose dependent manner
- Relative COLIA1 mRNA levels RQ (COL1A1 [3]; 1 μM): 0.83
- Relative COLIA1 mRNA levels RQ (COL1A1 [3]; 10 μM): 0.72
- Effect on COL1A1 expression in stellate cells (COL1A1 [3]): modestly decreased both PNPLA3 and COL1A1 in a dose dependent manner

Molecule: S=C(NCc1ccc2c(c1)OCO2)N1CCN(c2ncnc3c2oc2ccccc23)CC1 [Amuvatinib]
- IC50 [4]: 40 nM
- IC50 (FLT3): 81 nM
- IC50 [5]: 10 nM
- PNPLA3 expression, Fold change (Log 2) vs untreated (PNPLA3 [6]): −0.52 Log 2

Molecule: O=C1Nc2cc(Br)ccc2/C1=C1/Nc2ccccc2/C1=N\O [BIO]
- Effect on PNPLA3 mRNA levels in stellate cells (PNPLA3 [2]): modestly decreased both PNPLA3 and COL1A1 in a dose dependent manner
- Relative COLIA1 mRNA levels RQ (COL1A1 [3]; 1 μM): 0.74
- Relative COLIA1 mRNA levels RQ (COL1A1 [3]; 10 μM): 0.59
- Effect on COL1A1 expression in stellate cells (COL1A1 [3]): modestly decreased both PNPLA3 and COL1A1 in a dose dependent manner

Molecule: COc1nc(N)nc2c1ncn2[C@@H]1O[C@H](COP(=O)(N[C@@H](C)C(=O)OCC(C)(C)C)Oc2cccc3ccccc23)[C@@H](O)[C@@]1(C)O (stereo partly shown) [BMS-986094]
- PNPLA3 expression, Fold change (Log 2) vs untreated (PNPLA3 [6]): −0.69 Log 2

Molecule: N#CCNC(=O)c1ccc(-c2ccnc(Nc3ccc(N4CCOCC4)cc3)n2)cc1 [Momelotinib, N-(cyanomethyl)-4-{2-[4-(morpholin-4-yl)anilino]pyrimidin-4-yl}benzamide]
- Effect on PNPLA3 mRNA levels in stellate cells (PNPLA3 [2]): reduced PNPLA3 mRNA levels in stellate cells in a dose-dependent manner
- PNPLA3 expression in mouse liver (PNPLA3 [7]): reduced PNPLA3 significantly
- Response of mutant PNPLA3 mRNA levels in HepG2 cells [8]: dose-dependent manner
- Effect on COL1A1 expression in stellate cells (COL1A1 [3]): did not alter COL1A1 expression
- IC50 (JNK): < 100 nM
- Animal body weight, organ weight, other liver genes such as albumin, ASGR1, HAMP1 [9]: No change was observed
- Effect on PNPLA3 expression in human hepatocytes (PNPLA3 [1]): substantial decrease; also recorded: dose-dependent response

Molecule: CNS(=O)(=O)C[C@H]1CC[C@H](N(C)c2ncnc3[nH]ccc23)CC1 [Oclacitinib]
- Effect on PNPLA3 expression in human hepatocytes (PNPLA3 [1]): efficient downregulation

Molecule: COc1ccc(-c2cc3c(C)nc(N)nc3n([C@H]3CC[C@H](OCCO)CC3)c2=O)cn1 [PF-04691502]
- Relative PNPLA3 mRNA levels (PNPLA3 [10]; 1 μM): 0.21 ± 0.10

Molecule: C1=C/COCc2cc(ccc2OCCN2CCCC2)Nc2nccc(n2)-c2cccc(c2)COC/1 [Pacritinib]
- Effect on PNPLA3 expression in human hepatocytes (PNPLA3 [1]): substantial decrease

Molecule: NS(=O)(=O)C#Cc1ccccc1 [Pifithrin-μ, 2-Phenylethynesulfonamide]
- PNPLA3 expression, Fold change (Log 2) vs untreated (PNPLA3 [6]): −0.68 Log 2

Molecule: CCC(=O)N1CCN(c2ccc(-n3c(=O)ccc4cnc5ccc(-c6cnc7ccccc7c6)cc5c43)cc2C(F)(F)F)CC1 [Torin 1]
- Relative PNPLA3 mRNA levels RQ (PNPLA3 [2]; compound 0.01 μM): 0.34
- Relative PNPLA3 mRNA levels RQ (PNPLA3 [2]; compound 0.1 μM): 0.65
- Relative PNPLA3 mRNA levels RQ (PNPLA3 [2]; compound 1 μM): 0.99
- Relative PNPLA3 mRNA levels RQ (PNPLA3 [2]; compound 10 μM): 2.39
- Relative COL1A1 mRNA levels RQ (COL1A1 [3]; compound 0.01 μM): 0.29
- Relative COL1A1 mRNA levels RQ (COL1A1 [3]; compound 0.1 μM): 0.41
- Relative COL1A1 mRNA levels RQ (COL1A1 [3]; compound 1 μM): 0.43
- Relative COL1A1 mRNA levels RQ (COL1A1 [3]; compound 10 μM): 0.36
- Relative PNPLA3 mRNA levels (PNPLA3 [10]; 10 μM): 0.53 ± 0.25

Molecule: CNC(=O)Nc1ccc(-c2nc(N3CC4CCC(C3)O4)c3cnn(C4CCC5(CC4)OCCO5)c3n2)cc1 [WYE-125132]
- Effect on PNPLA3 mRNA levels in stellate cells (PNPLA3 [2]): decreased both PNPLA3 and COL1A1 in HSCs in a dose-dependent manner
- Effect on COL1A1 expression in stellate cells (COL1A1 [3]): decreased both PNPLA3 and COL1A1 in HSCs in a dose-dependent manner
- PNPLA3 expression, Fold change (Log 2) vs untreated (PNPLA3 [6]): −0.86 Log 2
- COL1A1 expression in mouse liver (COL1A1 [11]): reduced COL1A1 expression

Molecule: CN1C(=O)c2sccc2N(C)c2nc(Nc3ccc(S(N)(=O)=O)cc3)ncc21 [XMU-MP-1]
- PNPLA3 expression, Fold change (Log 2) vs untreated (PNPLA3 [6]): −0.66 Log 2

Molecule: Activin
- Upregulation of PNPLA5 in the RNA-seq study (PNPLA5): best upregulators
- Upregulation of PNPLA3 in the RNA-seq study (PNPLA3 [6]): best upregulators

B1: GDF2 (BMP9) (protein, UniProt Q9UK05 320-429, looked up)
Growth/differentiation factor …: SAGAGSHCQKTSLRVNFEDIGWDSWIIAPKEYEAYECKGGCFFPLADDVTPTKHAIVQTLVHLKFPTKVGKACCVPTKLSPISVLYKDDMGVPTLKYHYEGMSVAECGCR
- Upregulation of PNPLA5 in the RNA-seq study (PNPLA5): best upregulators
- Upregulation of PNPLA3 in the RNA-seq study (PNPLA3 [6]): best upregulators
